Results reported in ChEMBL document CHEMBL4393702, “Structure-activity relationship and synthetic methodologies of α-santonin derivatives with diverse bioactivities: A mini-review” (Eur J Med Chem, 2019).
≈ marks a conversion by molar mass, not a printed value.

Columns and labels:
HT-29 = assay: Cytotoxicity against human HT-29 cells assessed as reduction in cell viability incubated for 72 hrs by MTT assay; format: functional, cell-based; settings: HT-29, 72 h
P388 = assay: Cytotoxicity against mouse P388 cells assessed as reduction in cell viability incubated for 72 hrs by MTT assay; format: functional, cell-based; settings: P388, 72 h
HONE1 cell line = assay: Cytotoxicity against human HONE1 cells assessed as reduction in cell viability incubated for 72 hrs by MTT assay; format: functional, cell-based; settings: HONE1, 72 h
[1] = Growth inhibition of human Caov cells after 48 hrs by MTT assay; format: functional
Melanoma cell line = assay: Growth inhibition of human Melanoma cells after 48 hrs by MTT assay; format: functional
[2] = tested on: Trypanosoma brucei brucei; assay: Antitrypanosomal activity against Trypanosoma brucei brucei GUTat 3.1 after 72 hrs by Alamar Blue assay; format: functional, organism-based; settings: GUTat 3.1, 72 h
[3] = Cytotoxicity against human […] cells assessed as reduction in cell viability after 72 hrs by Alamar Blue assay; format: functional, cell-based
[4] = biological target: T1, Polyunsaturated fatty acid 5-lipoxygenase (Homo sapiens, UniProt P09917); assay: Inhibition of 5-LOX in polymorphonuclear leucocytes (unknown origin); format: cell-based
T1 sequence (P09917 whole entry): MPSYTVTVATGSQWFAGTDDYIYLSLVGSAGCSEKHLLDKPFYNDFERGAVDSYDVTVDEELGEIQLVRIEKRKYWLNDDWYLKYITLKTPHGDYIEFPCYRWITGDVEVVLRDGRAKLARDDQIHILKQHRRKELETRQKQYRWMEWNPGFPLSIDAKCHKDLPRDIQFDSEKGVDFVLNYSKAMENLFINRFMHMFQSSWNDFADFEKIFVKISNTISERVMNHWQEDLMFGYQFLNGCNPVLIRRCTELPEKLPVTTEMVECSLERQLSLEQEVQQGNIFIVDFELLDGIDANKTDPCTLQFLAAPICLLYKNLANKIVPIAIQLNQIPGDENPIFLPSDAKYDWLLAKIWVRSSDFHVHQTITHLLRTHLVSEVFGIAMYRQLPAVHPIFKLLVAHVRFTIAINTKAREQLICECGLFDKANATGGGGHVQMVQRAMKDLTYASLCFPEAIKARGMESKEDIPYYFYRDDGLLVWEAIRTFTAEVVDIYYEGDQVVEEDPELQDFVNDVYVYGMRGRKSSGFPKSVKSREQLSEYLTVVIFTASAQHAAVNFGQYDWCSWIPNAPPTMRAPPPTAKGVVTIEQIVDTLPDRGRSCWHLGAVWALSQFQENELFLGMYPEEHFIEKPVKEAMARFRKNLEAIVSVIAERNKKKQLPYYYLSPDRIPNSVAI

[5] = biological target: T1, Polyunsaturated fatty acid 5-lipoxygenase; assay: Inhibition of 5-LOX (unknown origin)
THP-1 = assay: Anticancer activity against human THP1 cells assessed as reduction in cell viability incubated for 1 hr by SRB assay; format: functional, cell-based; settings: THP-1, 1 h
HCT-116 = assay: Anticancer activity against human HCT116 cells assessed as reduction in cell viability incubated for 1 hr by SRB assay; format: functional, cell-based; settings: HCT-116, 1 h
[6] = Anticancer activity against human IMR13 cells assessed as reduction in cell viability incubated for 1 hr by SRB assay; format: functional, cell-based
A549 = assay: Anticancer activity against human A549 cells assessed as reduction in cell viability incubated for 1 hr by SRB assay; format: functional, cell-based; settings: A549, 1 h
[7] = biological target: T2, Peroxisome proliferator-activated receptor gamma (Homo sapiens, UniProt P37231); assay: Agonist activity at GAL4- fused PPARgamma LBD (unknown origin) expressed in African green monkey COS7 cells by luciferase reporter gene assay; format: cell-based
T2 sequence (P37231 whole entry): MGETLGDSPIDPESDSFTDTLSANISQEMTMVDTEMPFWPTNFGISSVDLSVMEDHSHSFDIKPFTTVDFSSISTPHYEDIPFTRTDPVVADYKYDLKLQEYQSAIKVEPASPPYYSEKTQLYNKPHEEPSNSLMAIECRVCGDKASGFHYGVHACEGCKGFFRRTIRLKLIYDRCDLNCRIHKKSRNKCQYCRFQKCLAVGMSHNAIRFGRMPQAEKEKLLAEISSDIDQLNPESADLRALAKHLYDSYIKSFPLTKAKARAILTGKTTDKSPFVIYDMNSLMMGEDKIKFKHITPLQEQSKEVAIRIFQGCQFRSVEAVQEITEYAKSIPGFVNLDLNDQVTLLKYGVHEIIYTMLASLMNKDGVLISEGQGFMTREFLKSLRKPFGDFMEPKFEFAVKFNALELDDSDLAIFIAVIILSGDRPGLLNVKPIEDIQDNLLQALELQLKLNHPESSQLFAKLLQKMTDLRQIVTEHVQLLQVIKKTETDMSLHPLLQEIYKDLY

GI50 (Melanoma cell line) [nM]	IC50 [4] [nM]	IC50 [5] [nM]	Compound	GI50 [1] [nM]	further results
–	900	6000	CCCOc1cc(C)c2c(c1C)C[C@H]([C@@H](C)C(=O)Nc1ccccn1)CC2	–	–
–	1000	800	CCCOc1cc(C)c2c(c1C)C[C@H]([C@@H](C)C(=O)Nc1ncc(C)s1)CC2	–	–
–	8000	3000	CCCOc1cc(C)c2c(c1C)C[C@H]([C@@H](C)C(=O)NCc1cccs1)CC2	–	–
4000	–	–	CCCN(CCC)C[C@@H]1C(=O)O[C@@H]2C3=C(C)C(=O)C=C[C@]3(C)CC[C@@H]12	2000	–
–	800	1000	CCCOc1cc(C)c2c(c1C)C[C@H]([C@@H](C)C(=O)Nc1nccs1)CC2	–	–

Continued, molecule first:

Compound	GI50 (Melanoma cell line) [nM]	IC50 [4] [nM]	IC50 [5] [nM]	GI50 [1] [nM]	further results
C[C@@H]1C(=O)O[C@H]2C3=CC(=O)C[C@@H](O)[C@]3(C)CC[C@@H]12	–	–	–	–	IC50 (HT-29): 3100 to 6900 nM; IC50 (P388): 3100 to 6900 nM; IC50 (HONE1 cell line): 3100 to 6900 nM
COc1ccc(N2CCN(C[C@@H]3C(=O)O[C@@H]4C5=C(C)C(=O)C=C[C@]5(C)CC[C@@H]34)CC2)cc1	3000	–	–	3000	–
C[C@@H]1C(=O)O[C@H]2[C@H]1CC[C@@]1(C)CCC(=O)[C@](C)(OO)[C@@H]21	–	–	–	–	EC50 [2]: 0.4 µg/mL (≈ 1.42 µM); EC50 [3]: 64.2 µg/mL (≈ 227 µM)
CC1=C2[C@H]3OC(=O)[C@@H](CN4CCOCC4)[C@@H]3CC[C@@]2(C)C=CC1=O	3000	–	–	4000	–
CC1=C2[C@H]3OC(=O)[C@@H](CN4CCCC(C)(C)C4)[C@@H]3CC[C@@]2(C)C=CC1=O	3000	–	–	2000	–
CC1=C2C(=O)[C@H]([C@@H](C)C(=O)OCc3ccccc3)CC[C@@]2(C)C=CC1Cc1ccccc1 (stereo partly drawn)	–	–	–	–	IC50 (THP-1): 510 nM; IC50 (HCT-116): 600 nM; IC50 [6]: 230 nM; IC50 (A549): 300 nM
CC1=C2[C@H]3OC(=O)[C@@H](CN4CCN(Cc5ccc6c(c5)OCO6)CC4)[C@@H]3CC[C@@]2(C)C=CC1=O	2000	–	–	4000	–
CCCOc1cc(C)c2c(c1C)C[C@H]([C@H](C)C(=O)O)CC2	–	–	–	–	EC50 [7]: 15000 nM
